The results in this text go back to patent publication US11884750B2, “Cationic cell penetrating peptides and the use thereof” (CELLTROY CO., LTD., priority 2021, dated 2024).

One assay has as its system SH-SY5Y cells. Nature of the assay: Cell penetration efficiency in human neuroblastoma cells, 4 μM, flow cytometry. It counts as cell-based. The note with it: one hour; for cell permeability compared with TAT: 4 μM FITC-conjugated CPP, flow cytometry; for Score / Score/TAT: 4 μM FITC-conjugated peptide; for Score: intracellular fluorescence by flow cytometry; for Score/TAT: ratio to FITC-conjugated TAT. As for the experimental part: The cell penetration efficiency of the cationic CPPs selected in Example 1 was evaluated in neuroblastoma. In further detail, SH-SYSY cells, which is a human neuroblastoma cell line, were seeded in 24-well plates to have a cell density of 1×10^7 cells/well, and cultured in 10% FBS-added DMEM under conditions of 37° C. and 5% CO2 for 24 hours. In addition, the cells were treated with 4 μM each of FITC-conjugated CPPs (C12, C14, C16, C31, C52, and C67), or FITC-conjugated TAT, and incubated for one hour. After the termination of the incubation, the cells were transferred to a sterile tube using 0.25% trypsin and centrifuged to remove the medium. Afterward, the cells were washed with 500 μL of D-PBS twice to completely remove the medium, and finally, resuspended in 400 μL of D-PBS and intracellular fluorescence was measured by flow cytometry (FACSCanto II).
(§1) To evaluate the cell penetration efficiency of the additionally selected cationic CPPs, an experiment was conducted using human epidermal cells or human neuroblastoma cells. In further detail, HaCAT cells, which is a human epidermal cell line, or SH-SYSY cells, which is a human neuroblastoma cell line, were seeded in 24-well plates to have a cell density of 1×10^7 cells/well and cultured in 10% FBS-added DMEM under conditions of 37° C. and 5% CO2 for 24 hours. In addition, the cells were treated with 4 μM each of FITC-conjugated peptides and FITC-conjugated TAT for one hour. After the completion of the culture, the cells were transferred to a sterile tube using 0.25% trypsin and centrifuged to remove the medium. Afterward, the cells were washed with 500 μL of D-PBS twice to completely remove the medium, and finally, resuspended in 400 μL of D-PBS and intracellular fluorescence was measured by flow cytometry (FACSCanto II).
(§2) Subsequently, to confirm whether the CPPs according to the present invention show excellent cell permeability into different types of cells/tissues, various tissue-derived cells were treated with biologically active molecule-conjugated CPPs to compare its delivery capacity with TAT. As in the previous examples, each cell was aliquoted in a plate at an appropriate density, and cultured in a 10% FBS-added medium under a condition of 37° C. and 5% CO2 for 24 hours. Subsequently, the cells were treated with 4 μM each of FITC-conjugated CPP or FITC-conjugated TAT and incubated for one hour. After the completion of the incubation, the cells were transferred to a sterile tube using 0.25% trypsin and centrifuged to remove the medium. Afterward, the cells were washed with 500 μL of D-PBS twice to completely remove the medium, and finally, resuspended in 400 μL of D-PBS and intracellular fluorescence was measured by flow cytometry (FACSCanto II).
A general note: Flow cytometry measures light scatter and fluorescence of single cells or particles in a stream.

The subject of a further assay is HEK293T cell line. The assay is described as follows: Cell penetration efficiency using kidney cells. It counts as cell-based. The note with it: 4 μM FITC-conjugated CPP, one hour. As for the experimental part:
as §2

The test system of the next assay is HeLa cell line. The assay is described as follows: Cell penetration efficiency using cervical cancer cells. It counts as cell-based. The note with it: 4 μM FITC-conjugated CPP, one hour. As for the experimental part:
as §2

In a further assay the test system is HT1080 cell line. The assay is described as follows: Cell penetration efficiency using connective tissue (fibrosarcoma) cells. It counts as cell-based. As to conditions: 4 μM FITC-conjugated CPP, one hour. As for the experimental part: as §2
The subject of a further assay is HGB cell line. Nature of the assay: Cell penetration efficiency in glioblastoma cells. Format: cell-based, human. The note with it: 4 μM FITC-conjugated CPP, one hour. As for the experimental part:
as §2

A further assay has as its system A-427 cell line. The assay is described as follows: Cell penetration efficiency using lung cells. Format: cell-based. As to conditions: A-427 lung cells, 4 μM FITC-conjugated CPP, one hour. As for the experimental part:
as §2

For the next assay, the system named is HDF cell line. Nature of the assay: Cell penetration efficiency in skin cells (HDF). Format: cell-based. As to conditions: 4 μM FITC-conjugated CPP, one hour. As for the experimental part: as §2
Another assay relates to HaCAT cells. The assay is described as follows: Cell penetration efficiency in human epidermal (skin) cells, 4 μM, flow cytometry. It counts as cell-based. As to conditions: 4 μM FITC-conjugated CPP, one hour. As for the experimental part:
The cell penetration efficiency of the cationic CPPs selected in Example 1 was evaluated using human epidermal cells. In further detail, HaCAT cells, which is a human epidermal cell line, were seeded in 24-well plates to have a cell density of 1×10^7 cells/well, and cultured in 10% FBS-added DMEM under conditions of 37° C. and 5% CO2 for 24 hours. Subsequently, the cells were treated 4 μM each of the FITC-conjugated CPP or FITC-conjugated TAT, and incubated for one hour. After the termination of the incubation, the cells were transferred to a sterile tube using 0.25% trypsin, and the medium was removed through centrifugation. Afterward, the cells were washed with 500 μL of D-PBS twice to completely remove the medium, and finally, resuspended in 400 μL of D-PBS and intracellular fluorescence was measured by flow cytometry (FACSCanto II).
as §1, §2

Another assay has as its system SNU-46 cell line. The assay is described as follows: Cell penetration efficiency using laryngeal cells. It counts as cell-based. As to conditions: SNU-46 laryngeal cells, 4 μM FITC-conjugated CPP, one hour. As for the experimental part: as §2

As to ARVRARLRRRRIEP [C229], in the assay on SH-SY5Y cells, the “cell permeability compared with TAT” value is recorded as “higher cell permeability”, the Score is on record as 536 and the Score/TAT stood at 1.033. For the same sequence, the “cell permeability compared with TAT” value with HEK293T cell line is “higher cell permeability”. Further, the “cell permeability compared with TAT” value with HeLa cell line is “higher cell permeability”.

Regarding RVAALLRRRRRERP [C202], the “cell permeability compared with TAT” value in the assay with HT1080 cell line, in the assay on SH-SY5Y cells, in the assay on HGB cell line and in the assay on HeLa cell line was “higher cell permeability” in each case. In addition, the Score with SH-SY5Y cells amounted to 727. In the assay with SH-SY5Y cells, the Score/TAT is 1.401.

RALKLRRRRRAVLP [C68]: in the assay on SH-SY5Y cells, the Score was determined as 0 and the Score/TAT is on record as 0.000.

Regarding RALRRRLHRQRKLP [C355], in the assay with SH-SY5Y cells, the Score is given as 497. Moreover, in the assay on SH-SY5Y cells, the Score/TAT was 0.958. In addition, the “cell permeability compared with TAT” value with HGB cell line, in the assay with HEK293T cell line and in the assay with HeLa cell line was “higher cell permeability” each time.

With KARARRILRRRETP [C190], in the assay with SH-SY5Y cells, the “cell permeability compared with TAT” value is given as “higher cell permeability”, the Score turned out to be 579 and the Score/TAT stood at 1.116. Also, in the assay on HGB cell line, the “cell permeability compared with TAT” value is “higher cell permeability”.

In the case of RVRAILRRTRRKEP [C236], the “cell permeability compared with TAT” value in the assay on HT1080 cell line, in the assay with HEK293T cell line and in the assay on HeLa cell line was “higher cell permeability” throughout. The Score with SH-SY5Y cells is reported as 395. Moreover, the Score/TAT in the assay with SH-SY5Y cells was 0.761.

With YLRRKLRRRAGEPR [C230], in the assay on SH-SY5Y cells, the Score is listed as 305 and the Score/TAT is listed as 0.588. The “cell permeability compared with TAT” value with HEK293T cell line is given as “higher cell permeability”. Further, the “cell permeability compared with TAT” value with HeLa cell line is recorded as “higher cell permeability”.

With LRRVETLRRRKQPR [C319], in the assay on SH-SY5Y cells, the Score came to 436 and the Score/TAT is on record as 0.840. Further, the “cell permeability compared with TAT” value in the assay with HEK293T cell line was “higher cell permeability”. For the same sequence, the “cell permeability compared with TAT” value in the assay on HeLa cell line is “higher cell permeability”.

Take LDRERRRKKAERRP [C312]: in the assay with SH-SY5Y cells, the Score turned out to be 271 and the Score/TAT worked out at 0.522.

Consider KARARRILRRREAP [C191], for which, in the assay on SH-SY5Y cells, the “cell permeability compared with TAT” value is “higher cell permeability”, the Score stood at 592 and the Score/TAT is given as 1.141. Moreover, the “cell permeability compared with TAT” value with HGB cell line is recorded as “higher cell permeability”. In the assay with HeLa cell line, the “cell permeability compared with TAT” value is reported as “higher cell permeability”.

Consider AIKRRRRRALAKRP [C148], for which, in the assay with SH-SY5Y cells, the “cell permeability compared with TAT” value is on record as “higher cell permeability”, the Score was found to be 669 and the Score/TAT is recorded as 1.289. Moreover, the “cell permeability compared with TAT” value with HeLa cell line is given as “higher cell permeability”.

As for RPIRKLVRKAREKR [C168], in the assay with SH-SY5Y cells, the “cell permeability compared with TAT” value is given as “higher cell permeability”, the Score turned out to be 608 and the Score/TAT was found to be 1.171. In addition, in the assay with HGB cell line, the “cell permeability compared with TAT” value was “higher cell permeability”.

With AVKRRRRRALAKRP [C149], in the assay with SH-SY5Y cells, the “cell permeability compared with TAT” value is recorded as “higher cell permeability”, the Score is on record as 657 and the Score/TAT came out at 1.266.

RRKVVREKRKRKLP [C203]: in the assay with SH-SY5Y cells, the “cell permeability compared with TAT” value is listed as “higher cell permeability”, the Score worked out at 544 and the Score/TAT is listed as 1.048. The “cell permeability compared with TAT” value with HeLa cell line was “higher cell permeability”.

On to RERKRAARKKIKKP [C210], for which, in the assay on SH-SY5Y cells, the Score is recorded as 386 and the Score/TAT amounted to 0.744.

For RERKRANRKKLKKP [C310], in the assay with SH-SY5Y cells, the Score came out at 452 and the Score/TAT is reported as 0.871. In addition, the “cell permeability compared with TAT” value in the assay with HGB cell line is given as “higher cell permeability”. Moreover, the “cell permeability compared with TAT” value in the assay on HEK293T cell line is on record as “higher cell permeability”.

Turning to ARKNRMARQRRLRP [C45], the “cell permeability compared with TAT” value with HT1080 cell line is listed as “higher cell permeability”. Moreover, in the assay on SH-SY5Y cells, the “cell permeability compared with TAT” value is “higher cell permeability”, the Score stood at 570 and the Score/TAT was found to be 1.098. Moreover, in the assay on A-427 cell line, the “cell permeability compared with TAT” value is “higher cell permeability”.

As to RSPARKRVRAQKKR [C360], in the assay on SH-SY5Y cells, the Score is 388 and the Score/TAT is on record as 0.748.

On to RRALKRRAMRARRP [C170], for which the “cell permeability compared with TAT” value in the assay on SH-SY5Y cells, with HGB cell line, with HeLa cell line and in the assay on HDF cell line was “higher cell permeability” each time. Moreover, the Score with SH-SY5Y cells was 605. Moreover, the Score/TAT with SH-SY5Y cells is on record as 1.166.

In the case of RLKEERLKKRRRSP [C264], in the assay with SH-SY5Y cells, the Score is on record as 268 and the Score/TAT was determined as 0.516.

Consider RLRAIRRRRRSLDP [C219], for which, in the assay on SH-SY5Y cells, the Score turned out to be 453 and the Score/TAT amounted to 0.873. Moreover, the “cell permeability compared with TAT” value in the assay with HeLa cell line is “higher cell permeability”.

RKVLPRKQKRKRVK [C214]: in the assay on SH-SY5Y cells, the Score is 459 and the Score/TAT was 0.884. Further, the “cell permeability compared with TAT” value with HeLa cell line is recorded as “higher cell permeability”.

Regarding SVKRRRRRALAKRP [C341], the “cell permeability compared with TAT” value in the assay with HT1080 cell line, with SH-SY5Y cells, in the assay on HGB cell line, in the assay with HEK293T cell line and in the assay on HeLa cell line was “higher cell permeability” in each case. The Score in the assay on SH-SY5Y cells is 747. The Score/TAT with SH-SY5Y cells is 1.439.

Take RPRRKKQVKRIGKR [C379]: in the assay on SH-SY5Y cells, the Score was 391 and the Score/TAT amounted to 0.753. Moreover, the “cell permeability compared with TAT” value with HeLa cell line is on record as “higher cell permeability”.

For RRRQRKEKVRNQKP [C57], in the assay with SH-SY5Y cells, the Score is on record as 0 and the Score/TAT turned out to be 0.000.

As for ARRLRRRTAKLPAR [C102], the “cell permeability compared with TAT” value with SH-SY5Y cells, with HGB cell line and in the assay on HaCAT cells was “higher cell permeability” in each case. Moreover, the Score in the assay on SH-SY5Y cells came out at 720. Moreover, the Score/TAT with SH-SY5Y cells worked out at 1.387.

Take RALRRRAARAARRP [C37]: in the assay on SH-SY5Y cells, the Score is 0 and the Score/TAT is on record as 0.000.

Regarding RPRRKKQAKRLGKR [C378], the “cell permeability compared with TAT” value with SNU-46 cell line is “higher cell permeability”. Moreover, in the assay on SH-SY5Y cells, the Score was 400 and the Score/TAT is 0.771. The “cell permeability compared with TAT” value with HeLa cell line was “higher cell permeability”.

For the sequence RRREPLRARARVRR [C387], in the assay on SH-SY5Y cells, the “cell permeability compared with TAT” value was “higher cell permeability”, the Score is 560 and the Score/TAT was determined as 1.079. In the assay on HEK293T cell line, the “cell permeability compared with TAT” value is “higher cell permeability”. The “cell permeability compared with TAT” value in the assay on HeLa cell line is given as “higher cell permeability”.
